Tests used:
[1] = molecular target: Recombinant human soluble BACE1 catalytic domain (Homo sapiens (Human), UniProt P56817); assay: BACE1 HTRF FRET Assay; format: biochemical; conditions: for Ki: Ki calculated from IC50 using the Cheng-Prusoff equation, QSY7-APPswe-Eu substrate, pH 5.0, read-out: BACE-1 Ki; for inhibition at 10 µM: read-out: BACE-1 inhibition (printed in BACE-1 Ki column)
From the text: Reagents: Na^+-Acetate pH 5.0; 1% Brij-35; Glycerol; Dimethyl Sulfoxide (DMSO); Recombinant human soluble BACE1 catalytic domain (>95% pure); APP Swedish mutant peptide substrate (QSY7-APP^swe-Eu): QSY7-EISEVNLDAEFC-Europium-amide.
A homogeneous time-resolved FRET assay can be used to determine IC50 values for inhibitors of the soluble human BACE1 catalytic domain. This assay monitors the increase of 620 nm fluorescence that resulted from BACE1 cleavage of an APPswedish APP^swe mutant peptide FRET substrate (QSY7-EISEVNLDAEFC-Europium-amide). This substrate contains an N-terminal QSY7 moiety that serves as a quencher of the C-terminal Europium fluorophore (620 nm Em). In the absence of enzyme activity, 620 nm fluorescence is low in the assay and increased linearly over 3 hours in the presence of uninhibited BACE1 enzyme. Inhibition of BACE1 cleavage of the QSY7-APP^swe-Eu substrate by inhibitors is manifested as a suppression of 620 nm fluorescence.
Varying concentrations of inhibitors at 3× the final desired concentration in a volume of 10 ul are preincubated with purified human BACE1 catalytic domain (3 nM in 10 μl) for 30 minutes at 30° C. in reaction buffer containing 20 mM Na-Acetate pH 5.0, 10% glycerol, 0.1% Brij-35 and 7.5% DSMO. Reactions are initiated by addition of 10 μl of 600 nM QSY7-APP^swe-Eu substrate (200 nM final) to give a final reaction volume of 30 μl in a 384 well Nunc HTRF plate. The reactions are incubated at 30° C. for 1.5 hours. The 620 nm fluorescence is then read on a Rubystar HTRF plate reader (BMG Labtechnologies) using a 50 millisecond delay followed by a 400 millisecond acquisition time window. Inhibitor IC50 values are derived from non-linear regression analysis of concentration response curves. Ki values are then calculated from IC50 values using the Cheng-Prusoff equation using a previously determined […] of 8 μM for the QSY7-APP^swe-Eu substrate at BACE1.

[2] = molecular target: purified human autoBACE-2 (Homo sapiens (Human), UniProt Q9Y5Z0); assay: BACE-2 Assay (BACE-HTRF assay); format: biochemical; conditions: Ki calculated from IC50 using the Cheng-Prusoff equation; QSY7-EISEVNLDAEFC-Eu-amide substrate, pH 5.0
Experimental: Inhibitor IC50s at purified human autoBACE-2 are determined in a time-resolved endpoint proteolysis assay that measures hydrolysis of the QSY7-EISEVNLDAEFC-Eu-amide FRET peptide substrate (BACE-HTRF assay). BACE-mediated hydrolysis of this peptide results in an increase in relative fluorescence (RFU) at 620 nm after excitation with 320 nm light. Inhibitor compounds, prepared at 3× the desired final concentration in 1×BACE assay buffer (20 mM sodium acetate pH 5.0, 10% glycerol, 0.1% Brij-35) supplemented with 7.5% DMSO are preincubated with an equal volume of autoBACE-2 enzyme diluted in 1×BACE assay buffer (final enzyme concentration 1 nM) in black 384-well NUNC plates for 30 minutes at 30° C. […] DMSO is present at 5% final concentration in the assay. Following laser excitation of sample wells at 320 nm, the fluorescence signal at 620 nm is collected for 400 ms following a 50 μs delay on a RUBYstar HTRF plate reader (BMG Labtechnologies). Raw RFU data is normalized to maximum (1.0 nM BACE/DMSO) and minimum (no enzyme/DMSO) RFU values. IC50s are determined by nonlinear regression analysis (sigmoidal dose response, variable slope) of percent inhibition data with minimum and maximum values set to 0 and 100 percent respectively. Similar IC50s are obtained when using raw RFU data. The Ki values are calculated from the IC50 using the Cheng-Prusoff equation.

Sequence of purified human autoBACE-2 (Q9Y5Z0 63-518): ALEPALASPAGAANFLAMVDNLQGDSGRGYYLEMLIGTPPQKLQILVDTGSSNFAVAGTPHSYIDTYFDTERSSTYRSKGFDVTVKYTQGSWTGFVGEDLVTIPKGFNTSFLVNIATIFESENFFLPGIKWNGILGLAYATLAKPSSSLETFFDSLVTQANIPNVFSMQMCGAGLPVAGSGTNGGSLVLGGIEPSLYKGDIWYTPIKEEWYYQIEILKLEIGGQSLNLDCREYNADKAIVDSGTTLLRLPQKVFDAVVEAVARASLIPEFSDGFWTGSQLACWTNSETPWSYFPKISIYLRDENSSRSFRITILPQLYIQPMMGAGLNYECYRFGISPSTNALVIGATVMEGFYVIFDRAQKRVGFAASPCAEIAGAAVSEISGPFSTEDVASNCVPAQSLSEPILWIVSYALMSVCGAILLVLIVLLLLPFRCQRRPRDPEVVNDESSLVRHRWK
Sequence of Recombinant human soluble BACE1 catalytic domain (P56817 75-416): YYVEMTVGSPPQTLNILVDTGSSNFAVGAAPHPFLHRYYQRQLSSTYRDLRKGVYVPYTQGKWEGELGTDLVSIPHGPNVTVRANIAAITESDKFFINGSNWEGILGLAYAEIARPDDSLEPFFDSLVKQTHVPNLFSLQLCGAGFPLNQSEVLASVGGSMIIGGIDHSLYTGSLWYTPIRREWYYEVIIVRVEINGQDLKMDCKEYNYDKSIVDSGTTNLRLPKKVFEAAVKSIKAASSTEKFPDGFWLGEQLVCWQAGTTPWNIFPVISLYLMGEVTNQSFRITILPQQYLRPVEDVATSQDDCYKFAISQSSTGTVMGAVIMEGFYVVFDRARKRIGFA

Ki [1]	Ki [2]	inhibition at 10 µM [1]	SMILES
363 nM	72.5 nM	–	C[C@H]1C[C@@H]2[C@](c3ccccc3F)(CO1)NC(=N)C(C)(C)S2(=O)=O [Example 1, (4aS,7S,8aR)-4a-(2-fluorophenyl)-3-imino-2,2,7-trimethyloctahydropyrano[4,3-b][1,4]thiazine 1,1-dioxide]
–	6260 nM	50%	C[C@@H]1C[C@@H]2[C@](c3ccccc3F)(CO1)NC(=N)C(C)(C)S2(=O)=O [Example 2, (4aS,7R,8aR)-4a-(2-fluorophenyl)-3-imino-2,2,7-trimethyloctahydropyrano[4,3-b][1,4]thiazine 1,1-dioxide]
1210 nM	399 nM	–	C[C@H]1C[C@@H]2[C@](c3cc(Br)ccc3F)(CO1)NC(=N)C(C)(C)S2(=O)=O [Example 3, (4aS,7S,8aR)-4a-(5-bromo-2-fluorophenyl)-3-imino-2,2,7 trimethyloctahydropyrano[4,3-b][1,4]thiazine 1,1-dioxide]
17.5 nM	4.9 nM	–	C[C@H]1C[C@@H]2[C@](c3cc(Oc4ncccc4F)ccc3F)(CO1)NC(=N)C(C)(C)S2(=O)=O [Example 5, (4aS,7S,8aR)-4a-(2-fluoro-5-((3-fluoropyridin-2-yl)oxy)phenyl)-3-imino-2,2,7-trimethyloctahydropyrano[4,3-b][1,4]thiazine 1,1-dioxide]
23.6 nM	19.2 nM	–	C[C@H]1C[C@@H]2[C@](c3cc(Oc4cc(C#N)ccn4)ccc3F)(CO1)NC(=N)C(C)(C)S2(=O)=O [Example 6, 2-(4-fluoro-3-((4aS,7S,8aR)-3-imino-2,2,7-trimethyl-1,1-dioxidooctahydropyrano[4,3-b][1,4]thiazin-4a-yl)phenoxy)isonicotinonitrile]
53.6 nM	28.9 nM	–	C[C@H]1C[C@@H]2[C@](c3cc(Oc4ncc(F)cc4F)ccc3F)(CO1)NC(=N)C(C)(C)S2(=O)=O [Example 7, (4aS,7S,8aR)-4a-(5-((3,5-difluoropyridin-2-yl)oxy)-2-fluorophenyl)-3-imino-2,2,7-trimethyloctahydropyrano[4,3-b][1,4]thiazine 1,1-dioxide]
4480 nM	1180 nM	–	C[C@@H]1C[C@@H]2[C@](c3cc(OCC4CC4)ccc3F)(CO1)NC(=N)C(C)(C)S2(=O)=O [Example 8, (4aS,7R,8aR)-4a-(5-(cyclopropylmethoxy)-2-fluorophenyl)-3-imino-2,2,7-trimethyloctahydropyrano[4,3-b][1,4]thiazine 1,1-dioxide]
94.2 nM	11.4 nM	–	C[C@H]1C[C@@H]2[C@](c3cc(OCC4CC4)ccc3F)(CO1)NC(=N)C(C)(C)S2(=O)=O [Example 9, (4aS,7S,8aR)-4a-(5-(cyclopropylmethoxy)-2-fluorophenyl)-3-imino-2,2,7-trimethyloctahydropyrano[4,3-b][1,4]thiazine 1,1-dioxide]
681 nM	249 nM	–	COc1ccc(F)c([C@]23CO[C@@H](C)C[C@H]2S(=O)(=O)C(C)(C)C(=N)N3)c1 [Example 10, (4aS,7S,8aR)-4a-(2-fluoro-5-methoxyphenyl)-3-imino-2,2,7-trimethyloctahydropyrano[4,3-b][1,4]thiazine 1,1-dioxide]
–	8400 nM	27%	COc1ccc(F)c([C@]23CO[C@H](C)C[C@H]2S(=O)(=O)C(C)(C)C(=N)N3)c1 [Example 11, (4aS,7R,8aR)-4a-(2-fluoro-5-methoxyphenyl)-3-imino-2,2,7-trimethyloctahydropyrano[4,3-b][1,4]thiazine 1,1-dioxide]

SMILES	Ki [1]	Ki [2]	inhibition at 10 µM [1]
CC(C)COc1ccc(F)c([C@]23CO[C@@H](C)C[C@H]2S(=O)(=O)C(C)(C)C(=N)N3)c1 [Example 4, (4aS,7S,8aR)-4a-(2-fluoro-5-isobutoxyphenyl)-3-imino-2,2,7-trimethyloctahydropyrano[4,3-b][1,4]thiazine 1,1-dioxide]	354 nM	31.6 nM	–

Source: patent US10689401B2, “C5-C6-oxacyclic fused iminothiazine dioxide compounds bearing an ether linker as BACE inhibitors, compositions, and their use” (Merck Sharp & Dohme Corp., priority 2016, dated 2020)
